This passage reports CC50 and IC50 results from paper PMC9603561, “Anticoagulants as Potential SARS-CoV-2 M^pro Inhibitors for COVID-19 Patients: In Vitro, Molecular Docking, Molecular Dynamics, DFT, and SAR Studies” (International Journal of Molecular Sciences, 2022).

A short description of data set [1]: MTT cytotoxicity assay. It counts as cell-based. As to conditions: African green monkey. How it is done: (§1) Half of the maximal cytotoxic concentrations (CC50) were assessed to obtain the exact concentration of a compound that caused a rupture to 50% of cells after being treated with variant doses from the compounds to calculate the safety index (SI) = CC50/IC50 for each compound. The assay was performed through stock solution preparation of the target compounds in DMSO/ddH2O (for those in powder form). However, those in solution form were used directly. The prepared solutions were further diluted with DMEM by attaining the working solutions. […] Shortly, 96 well-plates were utilized for cell seeding and incubated at 37 °C in 5% CO2 for 24 h afterward. After one day, the incubated cells were subjected to different concentrations in triplicates of the investigated compounds. After another 24 h, the supernatant was dismissed, and sterile 1x phosphate buffer saline (PBS) was used for cell monolayer washing in triplicates. Thus, 20 µL of 5 mg/mL stock solution was added to each well and then incubated at 37 °C, followed by a medium aspiration for 4 h. So, the formed formazan crystals were dissolved by 200 µL isopropyl alcohol or DMSO. The formazan solution absorbance was measured at 540 nm (λmax) using a multi-well plate reader, while the reference wavelength was 620 nm. The CC50 of each target compound was measured employing nonlinear regression analysis of GraphPad Prism software.
(Formazan colour is commonly taken as a measure of viable cells.)

The test system of data set [2] is SARS-CoV-2 (hCoV-19/Egypt/NRC-03/2020). Nature of the data set: Crystal violet assay, SARS-CoV-2 inhibitory assay (cell-based). The conditions noted are these: Vero E6 cells, crystal violet CPE readout, read-out: Inhibitory Concentration (IC50) against SARS-CoV-2.
For data set [3], the target named is T1, SARS-CoV-2 M^pro enzyme (Severe acute respiratory syndrome coronavirus 2, UniProt P0DTD1).
T1 construct: The 3CL Protease Assay Kit was used; purchased
The data set can be described thus: SARS-CoV-2 M^pro inhibitory assay (3CL Protease Assay Kit). It counts as biochemical.

Data set [4] relates to Vero E6 cells. Nature of the data set: MTT cytotoxicity assay. It is filed as cell-based. As to conditions: Vero E6 cells, MTT, 24 h treatment; read-out: Cytotoxicity Concentration (CC50). The method, then:
as §1

Where [5] appears, read: Severe acute respiratory syndrome coronavirus 2, Vero C1008, 72 h.
The mark [6] stands for this setting: fluorogenic substrate, triplicate.

Where two headings read alike, the source gives them in different places.

As to `[H]/N=C(/N)c1ccc(NCc2nc3cc(C(=O)N(CCC(=O)O)c4ccccn4)ccc3n2C)cc1` [Dabigatran, dabigatran], the CC50 at 24 h in data set [1] (Vero E6 cells, MTT, 24 h treatment, read-out: Cytotoxicity Concentration (CC50)) was 142 µM. For the same molecule, the IC50 was found to be 9.45 µM in data set [2] (setting [5]), 9.4 µM in data set [2] (72 h) and 10.6 µM in data set [3] (setting [6]).
For the molecule `CO[C@H]1O[C@H](COS(=O)(=O)O)[C@@H](O[C@@H]2O[C@@H](C(=O)O)[C@@H](O[C@H]3O[C@H](COS(=O)(=O)O)[C@@H](O[C@@H]4O[C@H](C(=O)O)[C@@H](O[C@H]5O[C@H](COS(=O)(=O)O)[C@@H](O)[C@H](O)[C@H]5NS(=O)(=O)O)[C@H](O)[C@H]4O)[C@H](OS(=O)(=O)O)[C@H]3NS(=O)(=O)O)[C@H](O)[C@H]2OS(=O)(=O)O)[C@H](O)[C@H]1NS(=O)(=O)O` [Fondaparinux sodium, fondaparinux sodium], in data set [1], the CC50 at 24 h came to 152 µM. In addition, the IC50 is 8.69 µM in data set [2] (setting [5]), 8.6 µM in data set [2] (72 h) and 2.36 µM in data set [3] (setting [6]).
In data set [1], `CCCSc1nc(N[C@@H]2C[C@H]2c2ccc(F)c(F)c2)c2nnn([C@@H]3C[C@H](OCCO)[C@@H](O)[C@H]3O)c2n1` [Ticagrelor, ticagrelor] returned a CC50 at 24 h of 142 µM. Also, the IC50 came out at 5.6 µM in data set [2] (setting [5]) and 47.5 µM in data set [3] (setting [6]).
For `CCC[C@@]1(CCc2ccccc2)CC(O)=C([C@H](CC)c2cccc(NS(=O)(=O)c3ccc(C(F)(F)F)cn3)c2)C(=O)O1` [tipranavir], the IC50 in data set [3] (setting [6]) turned out to be 7.38 µM.
Consider heparin, for which the CC50 in data set [4] came out at 262 µM. In addition, the IC50 in data set [2] (72 h) was 106 µM; in data set [3] (read-out: SARS-CoV-2 M^pro IC50, fluorogenic substrate, triplicate), 153 µM.
